Active and inactive are the calls of the source.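 How the source made its calls: active means IC50 below 100 µM in the TR-FRET assay, unless also active in the caspase-3 counter assay; inactive means the rest, including compounds also active in caspase-3.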
Target: Caspase-3 (Homo sapiens) (UniProt P42574)
Experiment: inhibition of recombinant caspase-3 activity – biochemical, luminescence, Caspase-Glo 3/7, set 2, counter-screen for UBC13 polyubiquitin inhibitor project, SAR follow-up (AID 588375)
Conditions: recombinant caspase-3, Caspase-Glo luminescence, 60 min

Caspase-3 (Homo sapiens), sequence (P42574 whole entry, looked up): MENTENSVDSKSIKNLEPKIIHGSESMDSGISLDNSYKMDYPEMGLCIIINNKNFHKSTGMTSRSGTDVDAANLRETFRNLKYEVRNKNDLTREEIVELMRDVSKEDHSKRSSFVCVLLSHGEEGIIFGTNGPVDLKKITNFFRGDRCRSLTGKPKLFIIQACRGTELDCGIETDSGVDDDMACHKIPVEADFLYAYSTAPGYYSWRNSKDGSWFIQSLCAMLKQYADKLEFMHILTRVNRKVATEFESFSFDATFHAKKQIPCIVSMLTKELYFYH

Row | SMILES | IC50
1 | O=C(NCCCN1CCN(c2ccc(F)cc2)CC1)C1CCCN(c2ncnc3c2nc2n3CCCCC2)C1 (configuration not stated) | > 100 µM (inactive)
2 | O=C(CN1CCC(n2cnc3cc(F)ccc32)CC1)Nc1ccccc1Br | > 100 µM (inactive)
3 | O=C(C1CCN(c2ncnc3c2nc2n3CCCCC2)CC1)N1CCN(c2ccc(F)cc2)CC1 | > 100 µM (inactive)
4 | CCOc1ccc(NC(=O)CN2CCC(n3cnc4cc(F)ccc43)CC2)cc1 | > 100 µM (inactive)
5 | Cc1nc2cc(F)ccc2n1C1CCN(CC(=O)Nc2ccccc2)CC1 | > 100 µM (inactive)
6 | CC1(C)Cc2c(sc(NC(=O)C(=O)N3CCCC3)c2C(N)=O)CO1 | > 100 µM (inactive)
7 | CC1(C)Cc2c(sc(NC(=O)C(=O)NCC3CCCO3)c2C(=O)O)CO1 (configuration not stated) | > 100 µM (inactive)
8 | O=C(CN1CCC(n2cnc3cc(C(F)(F)F)ccc32)CC1)Nc1ccc2c(c1)OCCO2 | > 100 µM (inactive)
9 | O=C(C1CCN(c2ncnc3c2nc2n3CCCCC2)CC1)N1CCN(c2ccccn2)CC1 | > 100 µM (inactive)
10 | COc1ccc(OC)c(NC(=O)CN2CCC(n3c(C)nc4cc(F)ccc43)CC2)c1 | > 100 µM (inactive)
11 | CC1(C)Cc2c(sc(NC(=O)C(=O)NCC3CCCO3)c2C(N)=O)CO1 (configuration not stated) | > 100 µM (inactive)
12 | O=C(CN1CCC(n2cnc3cc(F)ccc32)CC1)Nc1cccc(C(F)(F)F)c1 | > 100 µM (inactive)
13 | O=C(NCCCN1CCN(c2ccccc2)CC1)C1CCCN(c2ncnc3c2nc2n3CCCCC2)C1 (configuration not stated) | > 100 µM (inactive)

Results, then the compound that gave them:

Row | IC50 | SMILES
14 | > 100 µM (inactive) | O=C(CN1CCC(n2c(C(F)(F)F)nc3cc(F)ccc32)CC1)Nc1ccc2c(c1)OCO2
15 | > 100 µM (inactive) | O=C(c1ccco1)N1CCN(C(=O)C2CCN(c3ncnc4c3nc3n4CCCCC3)CC2)CC1
16 | > 100 µM (inactive) | O=C(C1CCN(c2ncnc3c2nc2n3CCCCC2)CC1)N1CCN(c2ncccn2)CC1
17 | > 100 µM (inactive) | COc1ccc(OC)c(NC(=O)CN2CCC(n3cnc4cc(F)ccc43)CC2)c1
18 | > 100 µM (inactive) | COC(=O)c1c(NC(=O)C(=O)NCC2CCCO2)sc2c1CC(C)(C)OC2 (configuration not stated)
19 | > 100 µM (inactive) | CCOc1ccccc1NC(=O)CN1CCC(n2cnc3cc(F)ccc32)CC1
20 | > 100 µM (inactive) | COc1ccc(NC(=O)CN2CCC(n3c(C)nc4cc(F)ccc43)CC2)c(OC)c1
21 | > 100 µM (inactive) | CC1(C)Cc2c(sc(NC(=O)C(=O)NCCN3CCOCC3)c2C(N)=O)CO1
22 | > 100 µM (inactive) | Cc1ccc(C)c(N2CCN(CCCNC(=O)C3CCCN(c4ncnc5c4nc4n5CCCCC4)C3)CC2)c1 (configuration not stated)
23 | > 100 µM (inactive) | Cc1nc2ccccc2n1C1CCN(CC(=O)Nc2ccccc2Oc2ccccc2)CC1
24 | > 100 µM (inactive) | Cc1cccc(NC(=O)CN2CCC(n3cnc4cc(F)ccc43)CC2)c1C
25 | > 100 µM (inactive) | Cc1cccc(N2CCN(CCCNC(=O)C3CCCN(c4ncnc5c4nc4n5CCCCC4)C3)CC2C)c1 (configuration not stated)
26 | > 100 µM (inactive) | O=C(C1CCN(c2ncnc3c2nc2n3CCCCC2)CC1)N1CCN(Cc2ccccc2)CC1
27 | > 100 µM (inactive) | COc1ccccc1N1CCN(CCCNC(=O)C2CCCN(c3ncnc4c3nc3n4CCCCC3)C2)CC1 (configuration not stated)

From PubChem BioAssay AID588375 (Sanford-Burnham Center for Chemical Genomics, 2011)
